One series deals with CfEcR-DEF mutant L223Y (Choristoneura fumiferana, UniProt O77255, L506Y). As to the kind of experiment: GAL4-driven luciferase reporter assay in NIH3T3 cells. The class given is cell-based. A digest of the protocol:
(§1)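 Mutant CfEcR-DEF receptor and GAL4-driven luciferase reporter constructs transfected into mouse NIH3T3 cells with DMSO or ligand added; maintained 48 h at 37° C in 5% FBS, harvested 40 h after ligand addition. Dual-luciferase read-out; fold induction = RLU with ligand / RLU with DMSO.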

In a further series the target is CfEcR-DEF mutant L234W (Choristoneura fumiferana, UniProt O77255, L517W). The series is described as above. The class given is cell-based. The procedure, abridged: as §1
CfEcR-DEF mutant L234W, sequence (O77255 entry or part of it L517W): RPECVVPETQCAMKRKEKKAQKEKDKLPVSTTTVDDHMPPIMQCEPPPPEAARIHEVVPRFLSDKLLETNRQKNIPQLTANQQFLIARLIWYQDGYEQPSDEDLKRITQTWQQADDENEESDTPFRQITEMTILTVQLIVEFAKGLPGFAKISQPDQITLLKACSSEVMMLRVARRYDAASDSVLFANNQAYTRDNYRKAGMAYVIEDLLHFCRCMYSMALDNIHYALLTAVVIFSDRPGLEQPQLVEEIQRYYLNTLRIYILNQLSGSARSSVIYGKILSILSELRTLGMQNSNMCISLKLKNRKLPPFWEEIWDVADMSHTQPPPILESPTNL
CfEcR-DEF mutant L234W, sequence (P28702 299-449, further chain): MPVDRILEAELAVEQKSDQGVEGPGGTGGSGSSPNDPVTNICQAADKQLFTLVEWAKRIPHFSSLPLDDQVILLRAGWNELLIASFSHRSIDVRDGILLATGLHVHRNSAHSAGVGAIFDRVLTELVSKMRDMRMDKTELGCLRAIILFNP
In another series the target is CfEcR-DEF mutant T52G (Choristoneura fumiferana, UniProt O77255, T335G). The series is described as above. The class given is cell-based. The procedure, abridged: as §1
CfEcR-DEF mutant T52G, sequence (O77255 entry or part of it T335G): as the sequence (O77255 entry or part of it L517W) above, with T129G, W311L counted along it
CfEcR-DEF mutant T52G, sequence (P28702 298-449, further chain): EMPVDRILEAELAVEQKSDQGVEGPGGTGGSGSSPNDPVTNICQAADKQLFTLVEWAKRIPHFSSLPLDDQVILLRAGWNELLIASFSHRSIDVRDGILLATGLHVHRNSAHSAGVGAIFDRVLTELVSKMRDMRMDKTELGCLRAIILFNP
The next series addresses CfEcR-DEF mutant M219A (Choristoneura fumiferana, UniProt O77255, M502A). Described as above. The class given is cell-based. A digest of the protocol: as §1
Another series deals with CfEcR-DEF mutant M125I (Choristoneura fumiferana, UniProt O77255, M408I). The description is as above. The class given is cell-based. The procedure, abridged: as §1
CfEcR-DEF mutant M125I, sequence (O77255 entry or part of it M408I): as the sequence (O77255 entry or part of it L517W) above, with M202I, W311L counted along it
CfEcR-DEF mutant M125I, sequence (P28702 299-449, further chain): as the sequence (P28702 299-449, further chain) above
For another series, the target named is CfEcR-DEF mutant T52Q (Choristoneura fumiferana, UniProt O77255, T335Q). The series is described as above. The class given is cell-based. A digest of the protocol:
as §1

In another series the target is CfEcR-DEF mutant I51M (Choristoneura fumiferana, UniProt O77255, I334M). The series is described as above. The class given is cell-based. A digest of the protocol:
as §1

A further series deals with CfEcR-DEF mutant F48K (Choristoneura fumiferana, UniProt O77255, F331K). The series is described as above. The class given is cell-based. A digest of the protocol: as §1
CfEcR-DEF mutant F48K, sequence (O77255 entry or part of it F331K): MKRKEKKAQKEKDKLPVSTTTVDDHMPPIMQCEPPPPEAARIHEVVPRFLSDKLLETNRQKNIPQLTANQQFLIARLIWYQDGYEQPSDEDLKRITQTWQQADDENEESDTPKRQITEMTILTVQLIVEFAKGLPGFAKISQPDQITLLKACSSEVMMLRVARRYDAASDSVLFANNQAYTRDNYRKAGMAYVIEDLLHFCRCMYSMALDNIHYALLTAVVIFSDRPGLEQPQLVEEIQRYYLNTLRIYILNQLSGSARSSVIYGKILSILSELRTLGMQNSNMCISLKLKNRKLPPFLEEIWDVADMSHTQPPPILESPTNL
CfEcR-DEF mutant F48K, sequence (P28702 299-449, further chain): as the sequence (P28702 299-449, further chain) above
In the next series the target is CfEcR-DEF mutant W238L (Choristoneura fumiferana, UniProt O77255, W521L). The series is described as above. The class given is cell-based. The procedure, abridged:
as §1

Another series concerns the target CfEcR-DEF mutant M125S (Choristoneura fumiferana, UniProt O77255, M408S). The description is as above. The class given is cell-based. The procedure, abridged:
as §1

The target in another series is CfEcR-DEF mutant L223R (Choristoneura fumiferana, UniProt O77255, L506R). Described as above. The class given is cell-based. The procedure, abridged:
as §1

A further series concerns the target CfEcR-DEF mutant W238M (Choristoneura fumiferana, UniProt O77255, W521M). The description is as above. The class given is cell-based. The procedure, abridged: as §1
In the next series the target is CfEcR-DEF mutant T52W (Choristoneura fumiferana, UniProt O77255, T335W). The description is as above. The class given is cell-based. The procedure, abridged: as §1
CfEcR-DEF mutant T52W, sequence (O77255 entry or part of it T335W): as the sequence (O77255 entry or part of it F331K) above, with K113F, T117W counted along it
CfEcR-DEF mutant T52W, sequence (P28702 299-449, further chain): as the sequence (P28702 299-449, further chain) above
A further series has as its target CfEcR-DEF mutant M219Y (Choristoneura fumiferana, UniProt O77255, M502Y). The series is described as above. The class given is cell-based. The procedure, abridged:
as §1

The next series has as its target CfEcR-DEF mutant F48R (Choristoneura fumiferana, UniProt O77255, F331R). The description is as above. The class given is cell-based. The procedure, abridged:
as §1

The target of a further series is CfEcR-DEF mutant L132E (Choristoneura fumiferana, UniProt O77255, L415E). The series is described as above. The class given is cell-based. A digest of the protocol: as §1
CfEcR-DEF mutant L132E, sequence (O77255 entry or part of it L415E): as the sequence (O77255 entry or part of it L517W) above, with L209E, W311L counted along it
CfEcR-DEF mutant L132E, sequence (P28702 298-449, further chain): as the sequence (P28702 298-449, further chain) above
The next series deals with CfEcR-DEF mutant L223K (Choristoneura fumiferana, UniProt O77255, L506K). The description is as above. The class given is cell-based. The procedure, abridged:
as §1

The next series deals with CfEcR-DEF mutant L234R (Choristoneura fumiferana, UniProt O77255, L517R). Described as above. The class given is cell-based. A digest of the protocol: as §1
CfEcR-DEF mutant L234R, sequence (O77255 entry or part of it L517R): as the sequence (O77255 entry or part of it L517W) above, with W311R counted along it
CfEcR-DEF mutant L234R, sequence (P28702 299-449, further chain): as the sequence (P28702 299-449, further chain) above
Series [1] deals with CfEcR-DEF mutant V107I/Y127E. The series is described as above. More on the design: Concentration (mM) at max FI: unit not given here. The class given is cell-based, Choristoneura fumiferana. How it is done:
This construct was prepared in the same way as in switch 1.1 above except wild-type CfEcR-DEF was replaced with mutant CfEcR-DEF comprising a ligand binding domain comprising a substitution mutation selected from Table 1 below.
DNAs were transfected into mouse NIH3T3 cells (ATCC) as follows. Standard methods for culture and maintenance of the cells were followed. Cells were harvested and plated 96-well plates at 2,500 cells per well, in 50 μL of growth medium containing 10% fetal bovine serum (FBS). Twenty-four hours later, the cells were treated with 35 μL of serum-free growth medium containing either dimethylsulfoxide (DMSO; control) or a DMSO solution of ligand. The cells were then transfected using Superfect (Qiagen Inc.) transfection reagent. For each well, 0.625 μL of Superfect was mixed with 14.2 μL of serum-free growth medium. 0.16 μg of reporter construct and 0.04 μg of each receptor construct were added to the transfection reagent mix. […]
Reporter Assays: Cells were harvested 40 hours after adding ligands. […] Luciferase activity was measured using Dual-Luciferase reporter assay system from Promega Corporation following the manufacturer's instructions. Fold induction (FI) activities were calculated by dividing relative light units (“RLU”) in ligand treated cells with RLU in DMSO treated cells (untreated control).

[2] abbreviates: NIH3T3, 40 h, read-out: Rel Max FI.

The structures appear in SMILES notation.

CfEcR-DEF mutant M219A, sequence (O77255 entry or part of it M502A): as the sequence (O77255 entry or part of it L517W) above, with M296A, W311L counted along it
CfEcR-DEF mutant M219A, sequence (P28702 299-449, further chain): as the sequence (P28702 299-449, further chain) above
CfEcR-DEF mutant F48R, sequence (O77255 entry or part of it F331R): as the sequence (O77255 entry or part of it L517W) above, with F125R, W311L counted along it
CfEcR-DEF mutant F48R, sequence (P28702 299-449, further chain): as the sequence (P28702 299-449, further chain) above
CfEcR-DEF mutant L223K, sequence (P28702 298-449): as the sequence (P28702 298-449, further chain) above
CfEcR-DEF mutant L223K, sequence (O77255 entry or part of it L506K): as the sequence (O77255 entry or part of it L517W) above, with L300K, W311L counted along it
CfEcR-DEF mutant M219Y, sequence (P28702 299-449): as the sequence (P28702 299-449, further chain) above
CfEcR-DEF mutant M219Y, sequence (O77255 entry or part of it M502Y): as the sequence (O77255 entry or part of it L517W) above, with M296Y, W311L counted along it
CfEcR-DEF mutant I51M, sequence (P28702 299-449): as the sequence (P28702 299-449, further chain) above
CfEcR-DEF mutant I51M, sequence (O77255 entry or part of it I334M): as the sequence (O77255 entry or part of it L517W) above, with I128M, W311L counted along it
CfEcR-DEF mutant T52Q, sequence (P28702 299-449): as the sequence (P28702 299-449, further chain) above
CfEcR-DEF mutant T52Q, sequence (O77255 entry or part of it T335Q): as the sequence (O77255 entry or part of it F331K) above, with K113F, T117Q counted along it
CfEcR-DEF mutant W238L, sequence (P28702 299-449): as the sequence (P28702 299-449, further chain) above
CfEcR-DEF mutant W238L, sequence (O77255 entry or part of it W521L): as the sequence (O77255 entry or part of it L517W) above, with W311L, W315L counted along it
CfEcR-DEF mutant W238M, sequence (P28702 299-449): as the sequence (P28702 299-449, further chain) above
CfEcR-DEF mutant W238M, sequence (O77255 entry or part of it W521M): as the sequence (O77255 entry or part of it L517W) above, with W311L, W315M counted along it
CfEcR-DEF mutant L223Y, sequence (P28702 299-449): as the sequence (P28702 299-449, further chain) above
CfEcR-DEF mutant L223Y, sequence (O77255 entry or part of it L506Y): as the sequence (O77255 entry or part of it F331K) above, with K113F, L288Y counted along it
CfEcR-DEF mutant M125S, sequence (P28702 299-449): as the sequence (P28702 299-449, further chain) above
CfEcR-DEF mutant M125S, sequence (O77255 entry or part of it M408S): as the sequence (O77255 entry or part of it F331K) above, with K113F, M190S counted along it
CfEcR-DEF mutant L223R, sequence (O77255 entry or part of it L506R): as the sequence (O77255 entry or part of it F331K) above, with K113F, L288R counted along it
CfEcR-DEF mutant L223R, sequence (P28702 299-449, further chain): as the sequence (P28702 299-449, further chain) above

As a reminder, the EC50 is the concentration that produces a half-maximal response. For the compound `CCc1c(OC)cccc1C(=O)NN(C(=O)c1cc(C)cc(C)c1)C(C)(C)C` [RG-102240, N-(2-ethyl-3-methoxybenzoyl)-N′-(3,5-dimethylbenzoyl)-N′-tert-butylhydrazine], the EC50 on CfEcR-DEF mutant L223Y turned out to be 3.15 µM; at CfEcR-DEF mutant L234W, 11.5 µM; on CfEcR-DEF mutant T52G it was 3.52 µM; on CfEcR-DEF mutant M219A, 2.9 µM; on CfEcR-DEF mutant M125I, 1.36 µM; on CfEcR-DEF mutant T52Q, 2.95 µM. Moreover, the EC50 on CfEcR-DEF mutant I51M was 3.94 µM; on CfEcR-DEF mutant F48K, 11.1 µM; on CfEcR-DEF mutant W238L, 11.1 µM; on CfEcR-DEF mutant M125S it was 12.3 µM; on CfEcR-DEF mutant L223R, 8.69 µM; at CfEcR-DEF mutant W238M it was 10.5 µM. Besides, the EC50 on CfEcR-DEF mutant T52W was found to be 18.3 µM; at CfEcR-DEF mutant M219Y, 0.82 µM; on CfEcR-DEF mutant F48R, 7.23 µM; at CfEcR-DEF mutant L132E it was 0.41 µM; on CfEcR-DEF mutant L223K, 3.93 µM; on CfEcR-DEF mutant L234R it was 17.1 µM. The Emax at CfEcR-DEF mutant L223Y (setting [2]), at CfEcR-DEF mutant L234W (setting [2]), on CfEcR-DEF mutant T52G (setting [2]), on CfEcR-DEF mutant M219A (setting [2]), at CfEcR-DEF mutant M125I (setting [2]) and on CfEcR-DEF mutant T52Q (setting [2]) was 100% throughout. Moreover, the Emax at CfEcR-DEF mutant I51M (setting [2]) was determined as 100%; on CfEcR-DEF mutant F48K (setting [2]), 100%; on CfEcR-DEF mutant W238L (setting [2]), 100%; on CfEcR-DEF mutant M125S (setting [2]) it was 100%; on CfEcR-DEF mutant L223R (setting [2]), 100%; at CfEcR-DEF mutant W238M (NIH3T3, 40 h, read-out: Rel MaxFI), 100%. Besides, the Emax at CfEcR-DEF mutant T52W (setting [2]), on CfEcR-DEF mutant M219Y (setting [2]), on CfEcR-DEF mutant F48R (setting [2]), on CfEcR-DEF mutant L132E (setting [2]), at CfEcR-DEF mutant L223K (setting [2]) and at CfEcR-DEF mutant L234R (setting [2]) was 100% throughout. Further, the “GS-E ligand max FI (relative to DMSO)” value in series [1] turned out to be 3146. For the same compound, the “Concentration (mM) at max FI” value in series [1] (GS-E ligand) is 10.
The melting point is the temperature, or range, at which the solid turns liquid. With `Cc1cc(C)cc(C(=O)N(NC(=O)c2cccc(C(C)C)c2C)C(C)(C)C)c1` [RG-102362, 3,5-Dimethyl-benzoic acid N-tert-butyl-N′-(3-isopropyl-2-methyl-benzoyl)-hydrazide], the melting point came to 182.5 °C.
